Assay results from article PMC10056567, “Structural Insights into the Ligand–LsrK Kinase Binding Mode: A Step Forward in the Discovery of Novel Antimicrobial Agents” (Molecules, 2023).

Key:
LsrK (ecLsrK) [1] = biological target: T1, LsrK (ecLsrK) (Escherichia coli, UniProt P77432); experiment: tryptophan fluorescence quenching, modified Stern-Volmer; assay type: binding; design: 530 residues; details: 0.1 uM LsrK, PBS pH 7.4, 25 °C
LsrK (ecLsrK) [2] = biological target: T1, LsrK (ecLsrK); experiment: biochemical

T1 sequence (P77432 whole entry): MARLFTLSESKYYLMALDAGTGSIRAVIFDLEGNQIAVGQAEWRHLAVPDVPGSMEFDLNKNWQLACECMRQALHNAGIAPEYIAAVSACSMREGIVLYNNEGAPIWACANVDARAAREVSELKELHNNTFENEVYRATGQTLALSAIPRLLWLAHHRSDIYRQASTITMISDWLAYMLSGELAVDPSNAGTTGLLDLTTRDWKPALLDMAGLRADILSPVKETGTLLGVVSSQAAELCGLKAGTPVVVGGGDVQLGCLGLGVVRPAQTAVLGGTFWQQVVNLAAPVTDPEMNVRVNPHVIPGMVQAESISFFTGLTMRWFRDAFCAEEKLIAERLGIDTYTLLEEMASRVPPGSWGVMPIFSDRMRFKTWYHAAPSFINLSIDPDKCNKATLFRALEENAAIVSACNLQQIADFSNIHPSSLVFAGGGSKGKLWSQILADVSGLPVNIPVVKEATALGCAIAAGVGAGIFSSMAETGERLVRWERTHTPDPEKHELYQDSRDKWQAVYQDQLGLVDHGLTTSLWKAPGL

| SMILES | Kd (LsrK (ecLsrK) [1]) | Kd (LsrK (ecLsrK) [2]) |
| --- | --- | --- |
| COc1cc(C)cc2cc3c(c(O)c12)C(=O)CC[C@H]3O [(R)-ASME] | 190 nM | – |
| COC(=O)[C@@H]1OC(=O)C[C@@]1(O)C(=O)OC [Hib-ester, dimethyl (2R,3S)-3-hydroxy-5-oxotetrahydrofuran-2,3-dicarboxylate] | 78 nM | – |
| Cc1cc(O)c(C=O)c2c1C(=O)Oc1c(COC(=O)/C=C/C(=O)O)c(O)c(C(=O)O)c(C)c1O2 [FP, fumarprotocetraric acid] | 217 ± 8 nM | – |
| O=CC1=C(O)C=CCO1 [Hib-carbaldehyde, 5-hydroxy-2H-pyran-6-carbaldehyde] | 140 nM | – |
| Nc1ncnc2c1ncn2[C@@H]1O[C@H](COP(=O)(O)OP(=O)(O)OP(=O)(O)O)[C@@H](O)[C@H]1O [ATP] | – | 5070 ± 230 nM |
